Measured values published in the supplement of paper PMC10331698.
± gives the standard deviation of the averaged measurements.

What was measured:
Assay in all cases: level (log10 ratio to DMSO vehicle control); higher = higher biomarker level / cell amount than vehicle control
[1] = compound: CCOC(=O)CC(=O)C(F)(F)C(F)(F)F [Ethyl pentafluoropropionyl acetate] (in DMSO)
Method: (§1)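 BioMAP Diversity Plus panel of 12 human primary cell co-culture systems (3C, 4H, LPS, SAg, BT, BF4T, BE3C, CASM3C, HDF3CGF, KF3CT, MyoF, Mphg). Compounds were added 1 h before stimulation and left for 24 h (MyoF 48 h; BT 72 h for soluble read-outs or 6 d for IgG). Biomarkers were read by ELISA, cytotoxicity by SRB, PBMC viability and proliferation by Alamar Blue. Each well value was divided by the mean of 8 DMSO control wells on the same plate and log10 transformed; duplicate blinded samples were tested at 4 concentrations.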

Octafluoroadipic acid = compound: O=C(O)C(F)(F)C(F)(F)C(F)(F)C(F)(F)C(=O)O [Octafluoroadipic acid] (in DMSO)
Method: as §1

[2] = compound: O=C(O)C=C(C(F)(F)F)C(F)(F)F [3,3-Bis(trifluoromethyl)-2-propenoic acid] (in DMSO)
Method: as §1

[3] = compound: OCC(F)(F)OC(F)(F)C(F)(F)OC(F)(F)C(F)(F)OC(F)(F)CO [1H,1H,11H,11H-Perfluorotetraethylene glycol] (in DMSO)
Method: as §1

[4] = compound: O=S(=O)(O)C(F)(F)C(F)(F)C(F)(F)C(F)(F)C(F)(F)C(F)(F)C(F)(F)F [Perfluoroheptanesulfonic acid] (in DMSO)
Method: as §1

[5] = compound: NS(=O)(=O)C(F)(F)C(F)(F)C(F)(F)C(F)(F)C(F)(F)C(F)(F)C(F)(F)C(F)(F)F [Perfluorooctanesulfonamide] (in DMSO)
Method: as §1

Test System | level (log10) ([1]; 6700 nM) | level (log10) ([1]; 20000 nM) | level (log10) ([1]; 60000 nM) | level (log10) (Octafluoroadipic acid; 6700 nM) | level (log10) (Octafluoroadipic acid; 20000 nM) | level (log10) (Octafluoroadipic acid; 60000 nM) | level (log10) ([2]; 6700 nM) | level (log10) ([2]; 20000 nM) | level (log10) ([2]; 60000 nM) | level (log10) ([3]; 6700 nM) | level (log10) ([3]; 20000 nM) | level (log10) ([3]; 60000 nM) | level (log10) ([4]; 1500 nM) | level (log10) ([4]; 4400 nM) | level (log10) ([4]; 13000 nM) | level (log10) ([4]; 40000 nM) | level (log10) ([5]; 6700 nM) | level (log10) ([5]; 20000 nM)
SAg:PBMC Cytotoxicity | -0.0055 ± 0.032 | -0.005 ± 0.025 | -0.0015 ± 0.021 | 0.0085 ± 0.0064 | -0.0165 ± 0.042 | 0.0155 ± 0.00071 | -0.01 ± 0.0028 | -0.021 ± 0.016 | 0.002 ± 0.03 | -0.023 ± 0.034 | 0.008 ± 0.016 | -0.002 ± 0.033 | 0.026 ± 0.016 | -0.022 ± 0.033 | -0.0335 ± 0.00071 | 0.01 ± 0.033 | 0.009 ± 0.034 | 0.0315 ± 0.0064
SAg:Proliferation | 0.001 ± 0.065 | -0.004 ± 0.025 | 0.0315 ± 0.047 | -0.021 ± 0.016 | -0.0095 ± 0.0092 | -0.0065 ± 0.059 | 0.004 ± 0.0085 | -0.0715 ± 0.022 | -0.462 ± 0.032 | -0.0355 ± 0.074 | -0.0455 ± 0.00071 | -0.126 ± 0.016 | 0.0105 ± 0.026 | 0.0125 ± 0.029 | -0.024 ± 0.037 | 0.0325 ± 0.019 | -0.031 ± 0.042 | -0.0445 ± 0.036
SAg:SRB | 0 ± 0.0057 | 0.004 | -0.003 ± 0.02 | -0.01 ± 0.016 | -0.008 ± 0.014 | -0.012 ± 0.0014 | 0.0025 ± 0.0021 | -0.006 ± 0.0085 | -0.0275 ± 0.005 | -0.008 ± 0.025 | -0.0175 ± 0.021 | -0.045 ± 0.021 | -0.015 ± 0.0057 | -0.0125 ± 0.00071 | -0.0005 ± 0.012 | -0.0025 ± 0.013 | 0.0065 ± 0.005 | -0.0515 ± 0.0064
